The values below come from patent US5204311A, “Ethanediimidic acid bis[(arylalkylidene)hydrazide] color-formers” (Minnesota Mining and Manufacturing Company, priority 1991, dated 1993).

The conditions of series [1]: background art; cited from earlier work.
Series [2] is described as follows: Solubility in capsule fill solvents. The settings on record: for Dye Solubility: 4320 min. Type of series: physicochemical. As to the method: The encapsulation process requires the color-forming ligand be dissolved in a solvent or mixed solvents, because of the nature of the procedure. Formation of a microcapsule shell as by condensation of urea or melamine with an aldehyde such as formaldehyde or mixtures of aldehydes to form the capsule shell is carried out in an acidic aqueous medium and the color-former solution must be insoluble and unreactive to these reagents for the encapsulation to proceed. Solvents commonly used include tributyl phosphate, diethyl phthalate, and cyclohexane. […] As mentioned above, solubility of yellow color-formers exemplified by structure I in nonaqueous solvents such as those used in the encapsulation process may be increased by substituting alkyl, aryl, aralkyl, alkenyl, or such groups for the hydrogens on the various positions available in the structure I above.
(§1) This color observed on the CF sheet was yellow. […] Solubility in a solvent blend of tributyl phosphate, diethyl phthalate and cyclohexane (capsule solvents for preparing carbonless copy-paper) was >9% by weight. Thus the ligand is eminently suitable for encapsulation. The ligand is not volatile at 71 ° C. overnight.
Solubility in a solvent blend of tributyl phosphate, diethyl phthalate and cyclohexane (capsule solvents for preparing carbonless copy-paper) was 3% by weight. Thus the ligand is eminently suitable for encapsulation. The ligand is not volatile at 71 ° C. overnight.
*THE SOLUBILITY WAS DEEMED PREFERABLE IF IT WAS GREATER THAN 2% IN THE
FILL MIX AT ROOM TEMPERATURE FOR 3 DAYS. THE FILL MIX COMPRISED
TRIBUTYLPHOSPHATE (26.5%); DIETHYLPHTHALATE (17.6%); AND CYCLOHEXANE

A short description of series [3]: Imaging of CB sheet with encapsulated color-former on Ni-coated CF sheet. Type of series: physicochemical. As to conditions: carbonless paper capsules. As to the method: A precondensate solution was prepared comprising 192 g of formalin, 0.63 g of potassium tetraborate, 72 g of urea, and 328 g of soft water. The formalin was 37% formaldehyde and was added to a 1-liter flask equipped with a stirrer and heating mantle. The potassium tetraborate and urea were then added, and the mixture was heated to 70° C. The reaction was maintained at that temperature for 2.5-3.0 hr. The reaction mixture was then diluted with the water and allowed to cool. The precondensate solution, with about 24% solids, was then ready for use in the encapsulation process.
The precondensate and fill (ethanediimidic acid bis[hydrazide] and carrier or fill solvents) were combined to make capsules according to the following procedure. Sodium chloride (29.54 g) was added to the stirred precondensate solution and the temperature of the solution was adjusted to 20° C. The fill material (215 g) was added and full agitation was begun. After 5 minutes of stirring, 10% hydrochloric acid solution was added over 5 minutes in an amount such that the final pH of the reaction mixture was about 2.8. The reaction mixture was stirred for another 12 minutes. More of the 10% hydrochloric acid solution was added over a period of 12 minutes, in an amount such that the final pH of the solution was about […]. The reaction mixture was stirred at 20° C. for 1 hr, and then at 60° C. for 1-3 hr. The acidic solution was allowed to cool and adjusted to a pH of 7 by addition of concentrated ammonium hydroxide solution (28%). The capsule slurry could then be stored for later use.
The capsule slurry (10 g) was added to 65 g of a 1.5% aqueous sodium alginate solution. The mixture was applied to a coated paper using a bar coater with a 3 mil gap. The coating was allowed to dry at room temperature.
A 2% solution of the compound 1 in the capsule fill solvent of diethyl phthalate, tributyl phosphate, and cyclohexane was encapsulated by the procedure described in Experiment 5 above. A coating mixture of 10.0 g of capsule slurry, 2.5 g of Dow-620 butadiene-styrene latex, and 62.5 g of 1.5% sodium alginate slurry was coated onto paper by the draw down procedure described above.
A 7.5% solution comprising 5.45% N-(5-octanoylamido-2-metylpentyl)dithiooxamide/N-(5-octanoylamido-4-methylpentyl)dithiooxamide (G') mixture and 2.05% N,N'-di(5-octanoylamido-2-methylpentyl)dithiooxamide/N-(5-octanoylamido-2- methylpentyl)-N'-(5-octanoylamido-4-methylpentyl)dithiooxamide/N,N'-(5-octanoylamido-2-methylpentyl)dithiooxamide (G) mixture in the fill solvent mixture of diethyl phthalate, tributyl phosphate, and cyclohexanone was encapsulated by the procedure described above. A coating mixture of 10.0 g of capsule slurry, 2.5 g of Dow 620 styrene-butadiene latex, and 62.5 g of 1.5% sodium alginate solution was coated onto paper by the draw down procedure described in Experiment 5 above.
A blend was prepared of 10 g of the capsule slurry containing compound 1, with 10 g of capsule slurry containing 5.45% N-(5-octanoylamido-2-methylpentyl)dithiooxamide/N-(5-octanoylamido-4-methylpentyl)dithiooxamide (G') mixture and 2.05% N,N'-di(5-octanoylamido-2-methylpentyl)dithiooxamide/N-(5-octanoylamido-2- methylpentyl)-N'-(5-octanoylamido-4-methylpentyl)dithiooxamide/N,N'-di(5-octanoylamido-4-methylpentyl)dithiooxamide (G) mixture. […]

A short description of series [4]: Color (Hunter coordinates) of Ni complex, swabbed on Ni-coated receptor (CF) sheet. Type of series: physicochemical. Also on record: key to Hunter coordinate a / Hunter Coordinates a: Hunter a: +a red, -a green; key to Hunter coordinate b / Hunter Coordinates b: Hunter b: +b yellow, -b blue. The settings on record: for Chroma: C=(a^2 +b^2)^1/2; for Chroma / Image Color / Hunter Coordinates L / Hunter Coordinates a / Hunter Coordinates b: Ni(II) complex; for Chroma / Image Color: swab concn. 1% (Table 2); for Hunter Coordinates L / Hunter Coordinates a / Hunter Coordinates b: swab concn. 1%, 45°/0° reflectance, illuminant C (Table 2). As to the method:
In general, the colors of the complexes, as listed in Table 2 and Experiments 4, 6, and 7 below, were determined by preparing a 1% solution of the color-former or mixture of color-formers in an appropriate solvent. Unless otherwise indicated, the solvent was composed of a mixture of tributyl phosphate (26.5%), diethyl phthalate (17.6%), and cyclohexane (55.9%). The images were formed by applying two stripes of the solution to a substrate coated with a Ni^2+ coated receptor sheet using a cotton tipped applicator swab. Rapid and complete development of the image was achieved by passing the sheet through a hot shoe adjusted to 102° C., making a revolution every 10 seconds. The visually observed colors were measured and recorded.
One method of color measurement is to determine the color's position in color space. One color space system is the Hunter System; see F. W. Billmeyer, Jr., and M. Saltzman, Principles of Color Technology; John Wiley & Sons; New York, N.Y.; Ch. 2 & 3, 1981. In this system three mutually perpendicular axes (L, a, and b) are needed to define a color. "L" (+z axis) represents the lightness or darkness of the image; "a" (x axis) represents the amount of red or green (+a is red, -a is green); and "b" (y axis) represents the amount of yellow or blue (+b is yellow, -b is blue). By measuring a material's L, a, and b values, the color of one sample can be compared with that of other samples. Another value used in the Hunter System is Chroma (C). Chroma is defined by the equation [C=(a^2 +b^2)^1/2 ] and represents the distance of the image coordinates from the origin. The greater the Chroma, the more intense the image. Chroma is used to compare images cf the same hue. Because the color of a sample is also dependent upon the color temperature of the illuminating source, the angle at which the sample is illuminated, the angle at which the illumination is reflected, and the angle of the retina illuminated, these all need to be specified. Many instruments have been developed to record these values. One such instrument is the HunterLab LabScan II. This instrument is capable of automatically determining the L, a, and b values for a given sample, and was used for the following examples.
The L, a, and b color coordinates of the more uniform stripe were measured for 45°/0° reflectance on a HunterLab LabScan II, secondary observer, using illuminant C. The observed (image) color and the Hunter coordinates for Ni^2+ complexes of the yellow color-formers of this invention are given in Table 2.
A 1% solution of the condensation product in the encapsulation fill mix was swabbed onto a carbonless paper CF sheet (sold by the 3M Co. St. Paul, Minn.) with a cotton swab. The reflectance spectra had Hunter coordinates of: […]

A short description of series [5]: Color formation with zinc salts (zinc rosinate). Type of series: physicochemical. As to the method:
as §1
This color observed on the CF sheet was yellow.

A short description of series [6]: Volatility: transfer from simulated donor sheet to receptor sheet. Type of series: physicochemical. The settings on record: 71 ° C. overnight. The source says:
The method utilized in the experiments to both define and evaluate the level of volatility was as follows. A single sheet piece of Grade #10 (20×12 cm) cheesecloth (AF & F., Item No. 588033, American Fiber and Finishing, Inc., Burlington, Mass.) was placed between a simulated donor sheet and a receptor sheet of a carbonless paper construction. The simulated donor sheet comprised a sheet of paper saturated with color-former of structure I, which was used to simulate a CB sheet with ruptured capsules. Pressure was then applied for 24 hours by placing 9 pounds of paper on top of the sheets, to simulate storage conditions of the paper packages. The formation of color on the receptor sheet, due to transfer of volatile color-former thereto, was used as an indication that the particular color-former was less than optimally desirable for carbonless paper constructions, i.e., was volatile. A compound was considered generally to be nonvolatile, within the meaning of the term as used herein to define the present invention and thus to define color-formers most acceptable for use in carbonless image transfer arrangements, if no color was formed after the simulated test was run for about 24 hours at 25° C. In some instances, if no color was formed after storage at room temperature (25° C.), successively higher temperatures were used, as for example 49° C., 60° C., and 71° C. […]

The nature of series [7]: Stability in concentrated hydrochloric acid. Type of series: physicochemical.
Where [8] appears, read: 1% solution in encapsulation fill mix swabbed onto 3M CF sheet (Experiments 2, 3).

As to `S=C(NCc1ccccc1)C(=S)NCc1ccccc1` [H, N,N'-di(benzyl)dithiooxamide], the “image color with metal” value in series [1] is listed as “blue-purple”.

For `NC(=NN=Cc1ccccc1O)C(N)=NN=Cc1ccccc1O` [Compound 9, Ethanediimidic acid bis[(2-hydroxyphenylmethylene)hydrazide]], in series [2], the “solubility in encapsulation / capsule solvents (in words)” value was “too low in the solvent blend used in many carbonless paper capsules” and the “Dye Solubility” value is reported as less than 2.0%. The “color developed upon imaging” value in series [3] is “weak and often unacceptable”. In series [4], the Chroma was determined as 40.7, the “Image Color” value is recorded as “Yellow”, the “Hunter Coordinates L” value is listed as 84.5 and the “Hunter Coordinates a” value was -9.7. The “Hunter Coordinates b” value in series [4] is listed as 39.5.

`C=CCc1cccc(C=NN=C(N)C(N)=NN=Cc2cccc(CC=C)c2O)c1O` [Compound 16, ethanediimidic acid bis[(3-allylsalicylidene)hydrazide]]: in series [2], the “Solubility in a solvent blend of tributyl phosphate, diethyl phthalate and cyclohexane” value stood at 3 % by weight; the “solubility in encapsulation / capsule solvents (in words)” value is reported as “good solubility in capsule solvents”; the “Dye Solubility” value is reported as more than 3.0%. In addition, in series [5], the “color formation when reacted with zinc rosinate” value is “does not form color”. Besides, the volatility result in series [6] was “not volatile”. Also, in series [4] (setting [8]), the “Hunter coordinate L” value was 82.5, the Hunter coordinate a is -6.64 and the Hunter coordinate b is reported as 41.0. Further, the “color observed on the CF sheet” value in series [4] (1% solution swabbed (Experiments 2, 3)) is given as “yellow”. Also, in series [4], the Chroma turned out to be 41.6, the “Image Color” value is “Yellow”, the “Hunter Coordinates L” value is 82.5 and the “Hunter Coordinates a” value is listed as -6.6. For the same compound, in series [4], the “Hunter Coordinates b” value turned out to be 41.0. In series [7], the “stability in concentrated hydrochloric acid” value was “stable”.
